Data set [1] relates to 4T1. The data set can be described thus: Antitumor activity against mouse 4T1 cells implanted in female BALB/c mouse assessed as decrease in tumor size at 2.5 mg/kg, iv pretreated for 4 hrs followed by exposure to laser irradiation of 808 nm for 5 mins on every 2 days treated for 15 days. Type of data set: functional, organism-based. To be noted: time 15.0 day.
Data set [2] can be described thus: Toxicity in ICR mouse bearing mouse H22 cells assessed as damage in kidney at 2.5 mg/kg, iv pretreated for 4 hrs followed by exposure to laser irradiation of 808 nm for 5 mins on every 2 days treated for 15 days by H and E staining based analysis. The data set is classed as organism-based. To be noted: in vivo, 360 h, time 15 day.
Data set [3] relates to Mitochondrial membrane. The data set can be described thus: Inhibition of mitochondrial membrane potential in human HepG2 cells assessed as green fluorescence at 3.12 uM preincubated for 4 hrs followed by exposure to laser irradiation of 808 nm for 2 mins and subsequent incubation for 20 hrs by JC-1 dye based analysis. To be noted: time 1442.0 min. The data set is classed as cell membranes.

Another data set has as its system H22. Briefly: Antitumor activity against mouse H22 cells implanted in female ICR mouse assessed as tumor growth inhibition at 2.5 mg/kg, iv pretreated for 4 hrs followed by exposure to laser irradiation of 808 nm for 5 mins on every 2 days treated for 15 days. Type of data set: functional, organism-based. The note with it: time 15.0 day.
Data set [4] concerns 4T1. Briefly: Photothermal cytotoxicity against mouse 4T1 cells assessed as survival rate at 3.12 uM preincubated for 4 hrs followed by exposure to laser irradiation of 808 nm for 2 mins and subsequent incubation for 20 hrs by MTT assay relative to control. The data set is classed as functional. The note with it: 4T1, light or radiation study, 24.03 h, time 1442 min, read-out: Survival. Background: Formazan colour is commonly taken as a measure of viable cells.

Data set [5] can be described thus: Toxicity in female BALB/c mouse bearing mouse 4T1 cells assessed as damage in spleen at 2.5 mg/kg, iv pretreated for 4 hrs followed by exposure to laser irradiation of 808 nm for 5 mins on every 2 days treated for 15 days by H and E staining based analysis. Type of data set: organism-based. The note with it: in vivo, 360 h, time 15 day.
A short description of data set [6]: Drug accumulation in tumor of female BALB/c mouse bearing mouse 4T1 cells at 2.5 mg/kg, iv measured up to 12 hrs by fluorescence imaging analysis. To be noted: in vivo. The data set is classed as ADME, organism-based, Neoplasm.
In data set [7] the test system is Mitochondrial membrane. The data set can be described thus: Inhibition of mitochondrial membrane potential in mouse 4T1 cells assessed as green fluorescence at 3.12 uM preincubated for 4 hrs followed by exposure to laser irradiation of 808 nm for 2 mins and subsequent incubation for 20 hrs by JC-1 dye based analysis. Type of data set: cell membranes. To be noted: time 1442.0 min.

Data set [8] in a line: Toxicity in female BALB/c mouse bearing mouse 4T1 cells assessed as damage in heart at 2.5 mg/kg, iv pretreated for 4 hrs followed by exposure to laser irradiation of 808 nm for 5 mins on every 2 days treated for 15 days by H and E staining based analysis. The data set is classed as organism-based. To be noted: in vivo, 360 h, time 15 day.
Data set [9] is described as follows: Aqueous solubility of compound by absorbance based assay. Type of data set: physicochemical. The note with it: buffer.
Data set [10] concerns 4T1. The data set can be described thus: Antitumor activity against mouse 4T1 cells implanted in female BALB/c mouse assessed as cellular damage at 1.8 mg/kg, iv treated on every 2 days treated for 15 days by H and E staining based analysis. To be noted: time 15.0 day. The data set is classed as functional, organism-based.
Data set [11] in a line: Toxicity in female BALB/c mouse bearing mouse 4T1 cells assessed as damage in kidney at 1.8 mg/kg, iv pretreated for 4 hrs followed by exposure to laser irradiation of 808 nm for 5 mins on every 2 days treated for 15 days by H and E staining based analysis. The data set is classed as organism-based. To be noted: in vivo, 360 h, time 15 day.
The nature of data set [12]: Toxicity in female BALB/c mouse bearing mouse 4T1 cells assessed as damage in liver at 1.8 mg/kg, iv pretreated for 4 hrs followed by exposure to laser irradiation of 808 nm for 5 mins on every 2 days treated for 15 days by H and E staining based analysis. The data set is classed as organism-based. To be noted: in vivo, 360 h, time 15 day.
Data set [13] is described as follows: Toxicity in female BALB/c mouse bearing mouse 4T1 cells assessed as body weight at 1.8 mg/kg, iv pretreated for 4 hrs followed by exposure to laser irradiation of 808 nm for 5 mins on every 2 days treated for 15 days. Type of data set: organism-based. The note with it: in vivo, 360 h, time 15 day.
Data set [14] relates to 4T1. Briefly: Antitumor activity against mouse 4T1 cells implanted in female BALB/c mouse assessed as cellular damage at 1.8 mg/kg, iv pretreated for 4 hrs followed by exposure to laser irradiation of 808 nm for 5 mins on every 2 days treated for 15 days by H and E staining based analysis. The data set is classed as functional, organism-based. To be noted: time 15.0 day.

Data set [15] can be described thus: Drug accumulation in tumor of female BALB/c mouse bearing mouse 4T1 cells at 1.8 mg/kg, iv measured up to 12 hrs by fluorescence imaging analysis. Type of data set: ADME, organism-based, Neoplasm. To be noted: in vivo.

Structures are written as SMILES. The source made the active and inactive calls. No cut-off for these calls is given here.

With `COCCOCCOCCN1/C(=C/C=C/C(=C/C=C/C2=[N+](CCOCCOCCOC)c3ccccc3C2(C)C)C(=O)OC)C(C)(C)c2ccccc21.[I-]`, the result in the data set on 4T1 [1] was Active. Also, the Activity entry in [2], in data set [5] and in [8] was “Non-toxic” in each case. Further, the inhibition result in the data set with Mitochondrial membrane [3], in the data set on H22 and with Mitochondrial membrane [7] was “Active” each time. Moreover, the viability at 3.12 µM in the data set with 4T1 [4] was found to be 36%. In addition, the Drug uptake entry in data set [6] is “Active”. In addition, the solubility entry in [9] is “soluble”.

For `COC(=O)C(=C\C=C\C1=[N+](C)c2ccccc2C1(C)C)/C=C/C=C1/N(C)c2ccccc2C1(C)C.[I-]`, the Activity entry was “Not active; Minor Cell Damage Was Observed” in the data set on 4T1 [10]; “Non-toxic” in data set [11]; “Non-toxic” in [12]; 18 g in [13]; “Not active; Minor Cell Damage Was Observed” in the data set on 4T1 [14]. For the same compound, the Drug uptake result in data set [15] is on record as “Active”.

The record behind these values is ChEMBL document CHEMBL6182861, “Structural modification of heptamethine indocyanine dyes with improved aqueous solubility and stability for photothermal therapy” (Eur J Med Chem, 2025).
